These molecules were tested on Harmaline-induced tremor (assay: Harmaline-induced Tremor Model). Settings: Mus musculus, ip, adult male CD1 mice; test article 30 mg/kg i.p.; harmaline 30 mg/kg i.p.; read-out: Tremor Suppression Activity (magnitude of tremor suppression in percent compared to vehicle).
Format: in vivo
Description: Harmaline-induced Tremor: Harmaline-induced tremor is widely recognized as an animal model of Essential Tremor (ET). Following acute administration, harmaline produces an 8-16 Hz tremor in rodents, cats, and monkeys that, like ET, is postural and kinetic, involving appendicular and axial musculature (Handforth, A. (2012). Harmaline tremor: underlying mechanisms in a potential animal model of essential tremor. Tremor and Other Hyperkinetic Movements (NY), 2, 02-92-769-1; Handforth, A. (2016). Linking Essential Tremor to the Cerebellum-Animal Model Evidence. Cerebellum, 15(3), 285-298; LeDoux, M. (2005). Harmaline tremor. In Movement Disorders. Elsevier Inc.; Louis, E. D. (2014). Re-thinking the biology of essential tremor: From models to morphology. Parkinsonism and Related Disorders, 20 (SUPPL.1), S88-S93). […] Clinical agents that suppress ET in patients are generally effective in the harmaline-induced tremor model (Handforth 2016). Following acute dosing of harmaline in mice, the tremor frequency (10-20 Hz) is typically recorded using an automated force plate-based system.
Procedure: Tremor activity was measured using a custom-made testing apparatus containing a piezoelectric sensing platform which was connected to an amplifier (A-M Systems model 1700). Adult male CD1 mice were brought to the experiment room for acclimatization 1 h prior to testing. Mice were first placed inside the testing apparatus for 10 min baseline habituation. After the initial habituation, mice were treated with vehicle (10 ml/kg) or test article (30 mg/kg, i.p.) and placed back in the apparatus for an additional 20 min baseline recording. Subsequently, animals were injected with harmaline (30 mg/kg, i.p.) and tremor activity was measured for 20 min. The electric signal of tremor activity was amplified at a sampling rate of 512 Hz with a multichannel amplifier and then acquired, quantized, and digitized by a data acquisition unit (CED Micro 1401). The software Spike2 (v 7.07, Cambridge Electronic Design, Cambridge, UK) was used to analyze the tremor signal by performing Fourier transformation of the data into frequency spectra. Changes in absolute power were expressed relative to each animal's 20-min baseline for the frequencies of 10-20 Hz. Comparisons between treatment and respective vehicle groups were assessed with two-tailed, Student's t-test. The level of statistical significance was defined as p<0.05 (see, e.g., Table 2.1) The magnitude of tremor suppression in percent compared to vehicle is shown in Table 2.2.
A tremor suppression score was defined as the magnitude of tremor suppression in percent compared to vehicle: ≤24% (D), 25-55% (C), 56-70% (B) and 71-100% (A). Not tested (---).

`C[C@H]1COc2ccc(F)cc2[C@H]1CS(N)(=O)=O` (relative stereo) [Compound 53, ((3R*,4S*)-6-fluoro-3-methylchroman-4-yl)methanesulfonamide] was tested. Which inhibition in vivo at 30 mg/kg did it give?
The inhibition in vivo at 30 mg/kg was 25 to 55%.

Which inhibition in vivo at 30 mg/kg does the source give for `C[C@H]1C[C@@H](CS(N)(=O)=O)c2ccccc2O1` (stereo in doubt) [Compound 34, ((2S*,4R*)-2-methylchroman-4-yl)methanesulfonamide] here?
Its inhibition in vivo at 30 mg/kg is 56 to 70%.

For `CC[C@H]([C@@H]1CCOc2cc(F)ccc21)S(N)(=O)=O` (stereo in doubt) [Compound 26, (R*)-1-((R*)-7-fluorochroman-4-yl)propane-1-sulfonamide], which inhibition in vivo at 30 mg/kg is on record?
The inhibition in vivo at 30 mg/kg was 71 to 100%.

`NS(=O)(=O)CC1CCOc2cc(C(F)(F)F)ccc21` (single isomer, unassigned) [Compound 37, (S*)-(7-(trifluoromethyl)chroman-4-yl)methanesulfonamide] was tested. Which inhibition in vivo at 30 mg/kg did it give?
Its inhibition in vivo at 30 mg/kg is 56 to 70%.

How did the inhibition in vivo at 30 mg/kg turn out when `CC[C@@H]1COc2cc(F)ccc2[C@@H]1CS(N)(=O)=O` (stereo in doubt) [Compound 20, ((3S*,4R*)-3-ethyl-7-fluorochroman-4-yl)methanesulfonamide] was run?
The inhibition in vivo at 30 mg/kg was 71 to 100%.

How did the inhibition in vivo at 30 mg/kg turn out when `CC[C@@H]1C[C@H](CS(N)(=O)=O)c2ccc(F)cc2O1` (stereo in doubt) [Compound 11, ((2R*,4S*)-2-ethyl-7-fluorochroman-4-yl)methanesulfonamide] was run?
Its inhibition in vivo at 30 mg/kg is 71 to 100%.

`NS(=O)(=O)CC1CCOc2cc(Cl)ccc21` (single isomer, unassigned) [Compound 31, (S*)-(7-chlorochroman-4-yl)methanesulfonamide] was tested. Which inhibition in vivo at 30 mg/kg did it give?
The inhibition in vivo at 30 mg/kg was 71 to 100%.

How did the inhibition in vivo at 30 mg/kg turn out when `NS(=O)(=O)N[C@H]1CCOc2cc(F)ccc21` (stereo in doubt) [Compound 71, 4(S*))-7-fluoro-4-(sulfamoylamino)-3,4-dihydro-2(H)-chromene] was run?
Its inhibition in vivo at 30 mg/kg is 56 to 70%.

For `C[C@@H]1COc2cc(F)c(F)cc2[C@H]1CS(N)(=O)=O` (stereo in doubt) [Compound 9, ((3S*,4S*)-6,7-difluoro-3-methylchroman-4-yl)methanesulfonamide], which inhibition in vivo at 30 mg/kg is on record?
The inhibition in vivo at 30 mg/kg was 25 to 55%.

`CN([C@@H]1CCOc2cc(F)ccc21)S(N)(=O)=O` (stereo in doubt) [Compound 70, 4(R*))-7-fluoro-4[methyl(sulfamoyl)amino]-3,4-dihydro-2(H)-chromene] was tested. Which inhibition in vivo at 30 mg/kg did it give?
The inhibition in vivo at 30 mg/kg was at most 24%.

How did the inhibition in vivo at 30 mg/kg turn out when `NS(=O)(=O)CC1CC2(CC2)Oc2cc(F)ccc21` (single isomer, unassigned) [Compound 1, (S*)-(7-fluorospiro[chromane-2,1′-cyclopropan]-4-yl)methanesulfonamide] was run?
Its inhibition in vivo at 30 mg/kg is 56 to 70%.

How did the inhibition in vivo at 30 mg/kg turn out when `NS(=O)(=O)CC1CCOc2cc(F)cc(F)c21` (single isomer, unassigned) [Compound 17, (S*)-(5,7-difluorochroman-4-yl)methanesulfonamide] was run?
The inhibition in vivo at 30 mg/kg was 56 to 70%.

Which inhibition in vivo at 30 mg/kg does the source give for `N#Cc1ccc2c(c1)OCCC2CS(N)(=O)=O` (single isomer, unassigned) [Compound 59, (S*)-(7-cyanochroman-4-yl)methanesulfonamide] here?
The inhibition in vivo at 30 mg/kg was at most 24%.

For `C[C@@H]1COc2cc(F)c(F)cc2[C@@H]1CS(N)(=O)=O` (stereo in doubt) [Compound 8, ((3S*,4R*)-6,7-difluoro-3-methylchroman-4-yl)methanesulfonamide], which inhibition in vivo at 30 mg/kg is on record?
The inhibition in vivo at 30 mg/kg was 25 to 55%.

How did the inhibition in vivo at 30 mg/kg turn out when `C[C@H]1COc2cc(F)c(F)cc2[C@@H]1CS(N)(=O)=O` (stereo in doubt) [Compound 10, ((3R*,4R*)-6,7-difluoro-3-methylchroman-4-yl)methanesulfonamide] was run?
The inhibition in vivo at 30 mg/kg was at most 24%.

`C[C@@H]1COc2ccccc2[C@H]1CS(N)(=O)=O` (stereo in doubt) [Compound 41, ((3S*,4S*)-3-methylchroman-4-yl)methanesulfonamide] was tested. Which inhibition in vivo at 30 mg/kg did it give?
Its inhibition in vivo at 30 mg/kg is 56 to 70%.

How did the inhibition in vivo at 30 mg/kg turn out when `CN([C@H]1CCOc2cc(F)ccc21)S(N)(=O)=O` (stereo in doubt) [Compound 69, 4(S*))-7-fluoro-4-[methyl(sulfamoyl)amino]-3,4-dihydro-2(H)-chromene] was run?
The inhibition in vivo at 30 mg/kg was at most 24%.

How did the inhibition in vivo at 30 mg/kg turn out when `C[C@H]1COc2ccccc2[C@@H]1CS(N)(=O)=O` (stereo in doubt) [Compound 42, ((3R*,4R*)-3-methylchroman-4-yl)methanesulfonamide] was run?
Its inhibition in vivo at 30 mg/kg is at most 24%.

For `NS(=O)(=O)N[C@@H]1CCOc2cc(F)ccc21` (stereo in doubt) [Compound 72, 4(R*))-7-fluoro-4-(sulfamoylamino)-3,4-dihydro-2(H)-chromene], which inhibition in vivo at 30 mg/kg is on record?
The inhibition in vivo at 30 mg/kg was 25 to 55%.

Which inhibition in vivo at 30 mg/kg does the source give for `NS(=O)(=O)CC1CCOc2cc(F)c(F)cc21` (single isomer, unassigned) [Compound 29, (S*)-(6,7-difluorochroman-4-yl)methanesulfonamide] here?
The inhibition in vivo at 30 mg/kg was 56 to 70%.

For `NS(=O)(=O)C1(C2CCOc3cc(F)ccc32)CC1` (single isomer, unassigned) [Compound 27, (S*)-1-(7-fluorochroman-4-yl)cyclopropane-1-sulfonamide], which inhibition in vivo at 30 mg/kg is on record?
The inhibition in vivo at 30 mg/kg was at most 24%.

`C[C@@H]1COc2cc(F)ccc2[C@@H]1NS(N)(=O)=O` (stereo in doubt) [Compound 73, (3(S*),4(R*))-7-fluoro-3-methyl-4-(sulfamoylamino)-3,4-dihydro-2(H)-chromene] was tested. Which inhibition in vivo at 30 mg/kg did it give?
Its inhibition in vivo at 30 mg/kg is 56 to 70%.

With `CC1(C)COc2cc(F)ccc2C1CS(N)(=O)=O` (single isomer, unassigned) [Compound 43, (S*)-(7-fluoro-3,3-dimethylchroman-4-yl)methanesulfonamide] as the molecule, how does the inhibition in vivo at 30 mg/kg read?
Its inhibition in vivo at 30 mg/kg is at most 24%.

How did the inhibition in vivo at 30 mg/kg turn out when `C[C@H]1COc2cc(F)c(F)cc2[C@H]1CS(N)(=O)=O` (stereo in doubt) [Compound 7, ((3R*,4S*)-6,7-difluoro-3-methylchroman-4-yl)methanesulfonamide] was run?
The inhibition in vivo at 30 mg/kg was 25 to 55%.

Same assay, conditions: adult male CD1 mice; test article 30 mg/kg i.p.; harmaline 30 mg/kg i.p.

`NS(=O)(=O)C1(C2CCOc3cc(F)ccc32)CC1` (single isomer, unassigned) [Compound 28, (R*)-1-(7-fluorochroman-4-yl)cyclopropane-1-sulfonamide] was tested. Which “Tremor Suppression Activity (magnitude of tremor suppression in percent compared to vehicle)” value did it give?
The value was “C (25-55% (C))”.

How did the “Tremor Suppression Activity (magnitude of tremor suppression in percent compared to vehicle)” value turn out when `CC1(C)CC(CS(N)(=O)=O)c2cc(F)c(F)cc2O1` (single isomer, unassigned) [Compound 5, (S*)-(6,7-difluoro-2,2-dimethylchroman-4-yl)methanesulfonamide] was run?
The value was “C (25-55% (C))”.

With `NS(=O)(=O)CC1CCOc2c1ccc(F)c2F` (single isomer, unassigned) [Compound 16, (R*)-(7,8-difluorochroman-4-yl)methanesulfonamide] as the molecule, how does the “Tremor Suppression Activity (magnitude of tremor suppression in percent compared to vehicle)” value read?
The value was “B (56-70% (B))”.

For `CC1(C)COc2cc(F)ccc2C1CS(N)(=O)=O` (single isomer, unassigned) [Compound 44, (R*)-(7-fluoro-3,3-dimethylchroman-4-yl)methanesulfonamide], which “Tremor Suppression Activity (magnitude of tremor suppression in percent compared to vehicle)” value is on record?
Its value is “C (25-55% (C))”.

How did the “Tremor Suppression Activity (magnitude of tremor suppression in percent compared to vehicle)” value turn out when `NS(=O)(=O)CC1CC2(CCC2)Oc2cc(F)ccc21` (single isomer, unassigned) [Compound 4, (R*)-(7-fluorospiro[chromane-2,1′-cyclobutan]-4-yl)methane-sulfonamide] was run?
Its value is “B (56-70% (B))”.

How did the “Tremor Suppression Activity (magnitude of tremor suppression in percent compared to vehicle)” value turn out when `N#Cc1ccc2c(c1)OCCC2CS(N)(=O)=O` (single isomer, unassigned) [Compound 60, (R*)-(7-cyanochroman-4-yl)methanesulfonamide] was run?
The value was “C (25-55% (C))”.

For `NS(=O)(=O)CC1CC2(CC2)Oc2cc(F)ccc21` (single isomer, unassigned) [Compound 2, (R*)-(7-fluorospiro[chromane-2,1′-cyclopropan]-4-yl)methanesulfonamide], which “Tremor Suppression Activity (magnitude of tremor suppression in percent compared to vehicle)” value is on record?
The value was “A (71-100% (A))”.

With `NS(=O)(=O)CC1CCOc2c1ccc(F)c2F` (single isomer, unassigned) [Compound 15, (S*)-(7,8-difluorochroman-4-yl)methanesulfonamide] as the molecule, how does the “Tremor Suppression Activity (magnitude of tremor suppression in percent compared to vehicle)” value read?
The value was “C (25-55% (C))”.

How did the “Tremor Suppression Activity (magnitude of tremor suppression in percent compared to vehicle)” value turn out when `NS(=O)(=O)CC1CC2(CCC2)Oc2cc(F)ccc21` (single isomer, unassigned) [Compound 3, (S*)-(7-fluorospiro[chromane-2,1′-cyclobutan]-4-yl)methane-sulfonamide] was run?
The value was “C (25-55% (C))”.

Same assay, conditions: adult male CD1 mice; test article 30 mg/kg i.p.; harmaline 30 mg/kg i.p.; 10-20 Hz power over 20 min relative to 20-min baseline

`CC[C@@H]1C[C@H](CS(N)(=O)=O)c2ccc(F)cc2O1` (stereo in doubt) [Compound 11, ((2R*,4S*)-2-ethyl-7-fluorochroman-4-yl)methanesulfonamide] was tested. Which “Tremor power relative to baseline (mean ± s.e.m.)” value did it give?
Its value is 134 ± 32.

How did the “Tremor power relative to baseline (mean ± s.e.m.)” value turn out when `CC1(C)COc2cc(F)ccc2C1CS(N)(=O)=O` (single isomer, unassigned) [Compound 44, (R*)-(7-fluoro-3,3-dimethylchroman-4-yl)methanesulfonamide] was run?
Its value is 518 ± 109.
